Measurements reported in US9539256B2 (THE BOARD OF REGENTS OF THE UNIVERSITY OF TEXAS SYSTEM, priority 2012, dated 2017).
Entries after “also recorded” stand apart in the source; their conditions may differ.

How the values were obtained:
MIA PaCa-2 = test: Orthotopic MIA PaCa-2 pancreatic cancer metastasis model; type: in vivo; details: athymic nude mice; 50 mg/kg per day, oral gavage; weekly bioluminescence imaging; 50 mg/kg/day
Method: FIG. 14. ESI-09 inhibits PDA metastasis in vivo. MIA PaCa-2 stably expressing luciferase was orthotopically implanted into the pancreas of athymic nude mice. The mice were randomly divided into two groups and treated with vehicle or ESI-09 (50 mg/kg, oral gavage), respectively. The growth and metastasis of the tumors were monitored by weekly bioluminescence imaging using the IVIS bioluminescence imaging system.
It has been recently reported that EPAC1 is over-expressed in pancreatic adenocarcinoma (Lorenz et al. (2008) Pancreas 37: 102-103). However, the functional role of EPAC1 elevation in this neoplasm is not clear. The inventors sought to employ ESI-09 to determine the role of EPAC1 signaling in pancreatic cancer. […] In order to determine if the observed impact on cell migration is EPAC1 specific, the effect of suppressing EPAC1 expression on AsPC-1 and PANC-1 migration using RNAi was examined. […] To further determine how ESI-09 inhibits PDA cell migration and invasion, a cell adhesion assay was performed using a collagen I matrix. […] To determine the in vivo anti-metastatic effect of ESI-09, MIA PaCa-2 stably expressing luciferase were orthotopically implanted into the pancreas of athymic nude mice. […] The growth and metastasis of the tumors were monitored by weekly bioluminescence imaging using the IVIS bioluminescence imaging system.

pSTAT3 Y705 = test: Leptin signaling in organotypic brain slice cultures, Western blotting; type: cell-based, mice; details: basal state and in response to leptin stimulation
Method: FIGS. 17A-17B. Pharmacological inhibition of EPAC reduces plasma leptin and enhances leptin signaling in hypothalamus (A) Western blotting of pSTAT3 Y705, total STAT3, SOCS3, SHP2 and α-tubulin in organotypic brain slices at hypothalamus level treated with leptin with or without EPAC specific inhibitor. (B) Plasma leptin levels of 8-week-old wild-type mice treated 3 weeks with vehicle or ESI-09 (50 mg/kg).
To explore the feasibility of increasing leptin sensitivity by targeting Epac1 using small molecules, organotypic brain slice cultures were prepared from 11-day old wild-type C57BL/6 mice. After 7 days ex vivo culture, treatment of the brain tissue with the Epac specific antagonist ESI-09 led to an enhanced pSTAT3 Y705 level both at the basal state and in response to leptin stimulation. […] These pharmacological data are in agreement with results obtained using Epac1 KO mice and further confirm that inhibition of Epac1 enhances leptin signaling in the hypothalamus. To further investigate the therapeutic potential of this small molecule, wild-type mice were with ESI-09 (50 mg/kg) or vehicle (corn oil) by oral gavage for 3 weeks.

type I PKA holoenzyme = test: PKA counter screening, type I holoenzyme; type: biochemical; details: 25 μM compound
Method: Kinase activity of the type I and II PKA holoenzyme are measured spectrophotometrically in a 96-well plate with a coupled enzyme assay as described previously (Cook et al. (1982) Biochemistry 21: 5794-5799). In this assay, the formation of ADP is coupled to the oxidation of NADH by the pyruvate kinase/lactate dehydrogenase reactions so the reaction rate can be determined by following the oxidation of NADH, reflected by a decrease in absorbance at 340 nm. […] Reactions are pre-equilibrated at room temperature and initiated by adding the Kemptide substrate (final concentration 0.26 mM).

[1] = system: AsPC-1, BxPC-3, and PANC-1; test: Wound healing assay; type: cell-based; details: 10.0 μM; AsPC-1, BxPC-3, PANC-1
Method: Cells were grown to 95-100% confluency before a scratch wound was made. The medium was changed to RPMI 10% FBS containing 10.0 μM ESI-09. The cells were then incubated at 37° C. in 5% CO2. The wound was imaged at 0 hours and 22 hours after changing the medium. Healing rate was determined by calculating the percentage of wound closure normalized to a 1.0 mm wound according to the following equation: % wound closure=(distance between the edges of the wound before treatment with ES-09−distance between the edges of the wound 22 hours post treatment with ES-09)/1.0×100.

[2] = system: AsPC-1, BxPC-3, and PANC-1; test: Transwell migration/invasion assay; type: cell-based; details: pretreated with 10.0 μM for 24 hours; AsPC-1, BxPC-3, PANC-1
Method: The top chamber of 8 micron inserts (Costar Inc) were coated with BD Matrigel™ Basement Membrane Matrix ([…]). Cells (2×10^5) pretreated with 10.0 μM of ESI-09 for 24 hours were added to the top chamber of the inserts in serum free RPMI medium containing 0.25% BSA. The bottom chamber was filled with 600.0 μL of RPMI containing 10% FBS and 10.0 μM ESI-09. The cells were then incubated at 37° C. in 5% CO2 for 20 hours. Cells were removed from the top chamber and migrated cells were fixed in methanol and stained with crystal violet. The number of migrated cells were counted from four different fields.

CC(C)(C)c1cc(C(=O)C(C#N)=NNc2cccc(Cl)c2)no1 [ESI-09, 3-(5-Tert-Butyl-Isoxazol-3-Yl)-2-[(3-Chlorophenyl)-Hydrazono]-3-Oxo-Propionitrile]
PDA metastasis (MIA PaCa-2): reduced; also recorded: inhibits | pSTAT3 Y705 level (pSTAT3 Y705): enhanced | cAMP-induced type I PKA holoenzyme activation (type I PKA holoenzyme): did not significantly alter | cell migration, wound healing [1]: significant decrease; also recorded: significantly (P<0.05) decreased | cell migration, trans-well migration/invasion [2]: significant decrease; also recorded: significantly (P<0.05) decreased
